Data taken from PubChem BioAssay AID1189 (EPA DSSTox, 2008).
Active and inactive are the calls of the source.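 Rule for the calls: active = a tumor-causing dose value with its tumor site reported for any sex and species group of a rodent or other animal cancer study; inconclusive = only studies judged inadequate by the national testing program; inactive = tested in at least one study, none positive.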

assay: DSSTox (CPDBAS) Carcinogenic Potency Database Summary SingleCellCall Results; conditions: animal chronic carcinogenicity bioassays, CPDB summary call
Method in brief: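 Literature-derived summary: each substance receives an overall carcinogenic/non-carcinogenic category drawn from long-term bioassays in rats, mice, hamsters, dogs or primates, using the most positive sex-species experiment and minimal evidence criteria.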

Compound | outcome
C=C1C[C@@]23CC[C@H]4[C@@](C)(CCC[C@@]4(C)C(=O)O[C@@H]4O[C@H](CO)[C@@H](O)[C@H](O)[C@H]4O)[C@@H]2CC[C@]1(O[C@@H]1O[C@H](CO)[C@@H](O)[C@H](O)[C@H]1O[C@@H]1O[C@H](CO)[C@@H](O)[C@H](O)[C@H]1O)C3 | inactive
NCCNc1cccc2ccccc12 | inactive; active
IC(I)I | inactive
N#Cc1c(Cl)c(Cl)c(Cl)c(C#N)c1Cl | active; inactive
[Cl-].[Cl-].[Cl-].[Fe+3] | inactive
CCC[CH2][Sn]([CH2]CCC)([CH2]CCC)[O][Sn]([CH2]CCC)([CH2]CCC)[CH2]CCC | inactive
C[C@@H]1Cc2c(Cl)cc(C(=O)N[C@@H](Cc3ccccc3)C(=O)O)c(O)c2C(=O)O1 | active
CC(COc1ccc(C(C)(C)C)cc1)OS(=O)OCCCl (stereo not given) | active
C=C(C)CCl | active; inactive
Clc1ccc2c(c1)Oc1ccc(Cl)cc1O2 | inactive
O=C1NCCN1/N=C/c1ccc([N+](=O)[O-])o1 | active
Cc1cc(N)ccc1N | inactive
O=S(=O)(O)c1ccc(N=Nc2cc(S(=O)(=O)O)c3ccccc3c2O)c2ccccc12 | inactive; active
CCOc1ccc(NC(C)=O)cc1 | active; inactive
CC(Cl)C=O (stereo not given) | active
CCSCCC(N)C(=O)O (stereo not given) | active
ClC(Cl)C(Cl)(Cl)Cl | active
CC(C)CCC[C@@H](C)[C@H]1CC[C@H]2[C@@H]3CC=C4C[C@@H](OC(=O)Cc5ccc(N(CCCl)CCCl)cc5)CC[C@]4(C)[C@H]3CC[C@]12C | active
N[C@@H](Cc1cnc[nH]1)C(=O)O | inactive
O=C(Nc1ccc2c(c1)Cc1ccccc1-2)C(F)(F)F | active
O=NN1CCCCC1 | active; inactive
COc1cc(N=Nc2ccccc2)ccc1N | active; inactive
CCN(CC)CCOc1ccc(C(O)(Cc2ccc(OC)cc2)c2ccccc2)cc1 (stereo not given) | inactive
NC1=NCN([C@@H]2O[C@H](CO)[C@@H](O)[C@H]2O)C(=O)N1 | inactive; active

Compound | outcome
CC(C)(C)NC(=O)[C@H]1CC[C@H]2[C@@H]3CC[C@H]4NC(=O)C=C[C@]4(C)[C@H]3CC[C@]12C | active; inactive
CN(C)CCO | inactive; active
CN(N=O)c1ccc([N+](=O)[O-])cc1 | inactive
Cc1cc(-c2ccc(N)c(C)c2)ccc1N | active
CN(C)CCN(Cc1ccsc1)c1ccccn1 | inactive; active
COc1cc(-c2ccc(N)c(OC)c2)ccc1N | active; inactive
Cc1cc(C)c(N=Nc2c(O)c(S(=O)(=O)O)cc3cc(S(=O)(=O)O)ccc23)cc1C | active; inactive
CC(=O)N(O)c1ccc2c(c1)Cc1ccccc1-2 | active; inactive
ClC/C=C/CCl | active; inactive
c1ccc2c(c1)ccc1cc3c(ccc4ccccc43)cc12 | active
C/C=N/N(C)C=O | active; inactive
ON=C1CCCC1 | active; inactive
CCCCC(CC)COC(=O)CCCCC(=O)OCC(CC)CCCC (stereo not given) | active
ClC=C(Cl)Cl | active; inactive
C/C(=C(\CCOC(=O)c1ccccc1)SC(=O)c1ccccc1)N(C=O)Cc1cnc(C)nc1N | inactive; active
CC12CCC(CC1)C(C)(C)O2 | inactive
CC(Cl)Cl | inactive; active
NC(=O)c1ccccc1C(N)=O | inactive
CN(C)c1ccc(C(=C2C=CC(=[N+](C)C)C=C2)c2ccc(N(C)C)cc2)cc1 | active; inactive
Cc1cc(=O)[nH]c(=S)[nH]1 | active
COc1ccc(O)c(C(C)(C)C)c1 | active; inactive
Nc1ccc(N=Nc2ccc(N)cc2)cc1 | inactive; active
C/C=C/c1ccc2c(c1)OCO2 | inactive
Nc1ccc(-c2ccc(N)c(N)c2)cc1N | active

Compound | outcome
C=CC(=O)NCO | active; inactive
CC(O)CN(CCO)N=O (stereo not given) | active
O=S(=O)(Oc1ccc(Cl)cc1Cl)c1ccccc1 | inactive
CC[N+](=O)[O-] | inactive
C=CC(O)c1ccc(OC)cc1 (stereo not given) | active
CCNNC(=O)[C@@H]1[C@H](c2cc(OC)c(OC)c(OC)c2)c2cc3c(cc2[C@H](O)[C@H]1CO)OCO3 | inactive
Cc1ccccc1S(N)(=O)=O | active
COc1ccc2c3c1O[C@H]1[C@@H](O)C=C[C@H]4[C@@H](C2)N(C)CC[C@@]341 | inactive
C[C@@H]1C/C=C/C=C/C=C/C=C/[C@H](O[C@@H]2O[C@H](C)[C@@H](O)[C@H](N)[C@@H]2O)C[C@@H]2O[C@](O)(C[C@@H](O)C[C@H]3O[C@@H]3/C=C/C(=O)O1)C[C@H](O)[C@H]2C(=O)O | inactive
COc1cccc2c1C(=O)c1c(O)c3c(c(O)c1C2=O)C[C@@](O)(C(=O)CO)C[C@@H]3O[C@H]1C[C@H](N)[C@H](O)[C@H](C)O1 | inactive; active
O=C1OC(O)C(C(Cl)Cl)=C1Cl (stereo not given) | active
COP(=S)(OC)SCn1nnc2ccccc2c1=O | inactive
O=C(O)C1[O][Sb]2[O]C(=O)C([O]2)C(C(=O)O)[O][Sb]2[O]C(=O)C1[O]2 (stereo not given) | inactive
CN[C@@H](C)[C@H](O)c1ccccc1 | inactive
C#C[C@]1(O)CC[C@H]2[C@@H]3CCc4cc(O)ccc4[C@H]3CC[C@@]21C | active; inactive
Cc1cccc(N)c1 | active; inactive
Cc1c2ccccc2c(C)c2c1ccc1ccccc12 | active; inactive
O=[N+]([O-])c1ccc(-c2cnc3ccccn23)o1 | active
[N-]=[N+]=[N-] | inactive; active
CN=C(NC#N)NCCSCc1nc[nH]c1C | inactive; active
CCCN(CCC)c1c([N+](=O)[O-])cc(C(F)(F)F)cc1[N+](=O)[O-] | active
c1ccc2ccccc2c1 | active
CC(Oc1cc(Cl)ccc1Cl)C(=O)O (stereo not given) | inactive
OCC1CO1 (stereo not given) | active

Compound | outcome
O=C(Nc1cccc2c(=O)cc(-c3nn[nH]n3)oc12)c1ccc(OCCCCc2ccccc2)cc1 | inactive; active
CN(N=O)c1ncnc2nc[nH]c12 | active
C=C(C)C#N | inactive
O=C(O)c1ccc(N=Nc2ccc(O)c(C(=O)O)c2)cc1 | inactive
CN(C)CNc1nnc(/C=C/c2ccc([N+](=O)[O-])o2)o1 | active
CCN=c1cc2oc3cc(NCC)c(C)cc3c(-c3ccccc3C(=O)OCC)c-2cc1C | inactive; active
COc1cc2c(c3oc4cccc(O)c4c(=O)c13)C1C=COC1O2 (stereo not given) | active; inactive
O=c1[nH]c(=O)n(C2CCCO2)cc1F (stereo not given) | inactive
CC(=O)c1ccc(S(=O)(=O)NC(=O)NC2CCCCC2)cc1 | inactive
O=C(OOC(=O)c1ccccc1)c1ccccc1 | inactive
Cc1ccc(S(=O)(=O)OCCN(C)N=O)cc1 | active
NC(=O)c1cccnc1 | inactive
CCC1C(=O)OCC1Cc1cncn1C (stereo not given) | inactive
Cl/C=C/CCl | active
Nc1ccc([N+](=O)[O-])cc1O | active
O=C(O)COc1cc(Cl)c(Cl)cc1Cl | inactive
O=S(=O)(O)CCS | inactive; active
CCCCCCCCCC[N+](C)(C)[O-] | inactive
C=CCN(CC(C)=O)N=O | active
Cc1cc(O)cc(C)c1N(C)C | inactive; active
O=[N+]([O-])c1ccc(Oc2ccc(Cl)cc2Cl)cc1 | active
CN1C(=O)CN=C(c2ccccc2)c2cc(Cl)ccc21 | inactive
CCCNC(=O)NS(=O)(=O)c1ccc(Cl)cc1 | inactive
NC(=O)Cc1cccc2ccccc12 | inactive; active

Compound | outcome
CN(C)C(=S)[S][Pb][S]C(=S)N(C)C | inactive
C=Cc1ccccc1 | active
CC(=O)CN(CCO)N=O | active
Nc1ccc(O)c(N)c1 | active
Cc1ccc(-c2cc(C(F)(F)F)nn2-c2ccc(S(N)(=O)=O)cc2)cc1 | inactive
c1ccc2sc(SSc3nc4ccccc4s3)nc2c1 | inactive
CC1CN(N=O)CC(C)N1C(=O)c1ccccc1 (stereo not given) | active
O=NN1CCOCC1 | active; inactive
O=C1c2ccccc2C(=O)N1SC(Cl)(Cl)Cl | active
CN1[C@@H]2CC[C@H]1CC(OC(=O)C(CO)c1ccccc1)C2 (stereo not given in full) | inactive; active
C[C@@H]1O[C@@]2(CS1)CN1CCC2CC1 | inactive
Clc1ccc(-c2ccc(Cl)c(Cl)c2Cl)c(Cl)c1Cl | active
O=Nc1ccc(NO)cc1 | active
CO[C@@]12[C@H](COC(N)=O)C3=C(C(=O)C(C)=C(N)C3=O)N1C[C@@H]1N[C@@H]12 | active
CC(=O)C1C(=O)C=C(C)OC1=O (stereo not given) | inactive; active
O=C(O)COc1ccc(Cl)cc1Cl | inactive
CC1CN(N=O)CC(C)O1 (stereo not given) | active
CCCCCCCCCCCCCCCC(=O)CC(=O)CCCCCCCCCCCCCCC | active
[N]=O | inactive
S=C=NCCCc1ccccc1 | inactive
CN(C)[C@@H]1C(=O)C(C(N)=O)=C(O)[C@@]2(O)C(=O)C3=C(O)c4c(O)cccc4[C@@](C)(O)[C@H]3[C@H](O)[C@@H]12 | inactive; active
COc1cc(/C=C/C(=O)O[C@H]2CC[C@]34C[C@]35CC[C@]3(C)[C@@H]([C@H](C)CCC=C(C)C)CC[C@@]3(C)[C@@H]5CC[C@H]4C2(C)C)ccc1O | inactive
CC(=O)C(N=Nc1ccc(-c2ccc(N=NC(C(C)=O)C(=O)Nc3ccccc3)c(Cl)c2)cc1Cl)C(=O)Nc1ccccc1 (stereo not given) | inactive
CCN(N=O)C(N)=O | active; inactive
